From patent US9546164B2 (GENENTECH, INC., priority 2013, dated 2017)
Structures can show the parent of a compound that is named as a salt.

Target: hNav1.7 (Homo sapiens (Human), UniProt Q15858)
Assay: Tritiated sulfonamide competitive binding to membranes from cells expressing hNav1.7 and the β1 subunit;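 further: Filter-bound radioactivity counted by liquid scintillation, nonspecific binding defined with excess unlabelled ligand, IC50 fitted to percent inhibition of specific binding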
Settings: not given

hNav1.7, sequence (Q15858 other isoform, or with tags, fused parts or gaps): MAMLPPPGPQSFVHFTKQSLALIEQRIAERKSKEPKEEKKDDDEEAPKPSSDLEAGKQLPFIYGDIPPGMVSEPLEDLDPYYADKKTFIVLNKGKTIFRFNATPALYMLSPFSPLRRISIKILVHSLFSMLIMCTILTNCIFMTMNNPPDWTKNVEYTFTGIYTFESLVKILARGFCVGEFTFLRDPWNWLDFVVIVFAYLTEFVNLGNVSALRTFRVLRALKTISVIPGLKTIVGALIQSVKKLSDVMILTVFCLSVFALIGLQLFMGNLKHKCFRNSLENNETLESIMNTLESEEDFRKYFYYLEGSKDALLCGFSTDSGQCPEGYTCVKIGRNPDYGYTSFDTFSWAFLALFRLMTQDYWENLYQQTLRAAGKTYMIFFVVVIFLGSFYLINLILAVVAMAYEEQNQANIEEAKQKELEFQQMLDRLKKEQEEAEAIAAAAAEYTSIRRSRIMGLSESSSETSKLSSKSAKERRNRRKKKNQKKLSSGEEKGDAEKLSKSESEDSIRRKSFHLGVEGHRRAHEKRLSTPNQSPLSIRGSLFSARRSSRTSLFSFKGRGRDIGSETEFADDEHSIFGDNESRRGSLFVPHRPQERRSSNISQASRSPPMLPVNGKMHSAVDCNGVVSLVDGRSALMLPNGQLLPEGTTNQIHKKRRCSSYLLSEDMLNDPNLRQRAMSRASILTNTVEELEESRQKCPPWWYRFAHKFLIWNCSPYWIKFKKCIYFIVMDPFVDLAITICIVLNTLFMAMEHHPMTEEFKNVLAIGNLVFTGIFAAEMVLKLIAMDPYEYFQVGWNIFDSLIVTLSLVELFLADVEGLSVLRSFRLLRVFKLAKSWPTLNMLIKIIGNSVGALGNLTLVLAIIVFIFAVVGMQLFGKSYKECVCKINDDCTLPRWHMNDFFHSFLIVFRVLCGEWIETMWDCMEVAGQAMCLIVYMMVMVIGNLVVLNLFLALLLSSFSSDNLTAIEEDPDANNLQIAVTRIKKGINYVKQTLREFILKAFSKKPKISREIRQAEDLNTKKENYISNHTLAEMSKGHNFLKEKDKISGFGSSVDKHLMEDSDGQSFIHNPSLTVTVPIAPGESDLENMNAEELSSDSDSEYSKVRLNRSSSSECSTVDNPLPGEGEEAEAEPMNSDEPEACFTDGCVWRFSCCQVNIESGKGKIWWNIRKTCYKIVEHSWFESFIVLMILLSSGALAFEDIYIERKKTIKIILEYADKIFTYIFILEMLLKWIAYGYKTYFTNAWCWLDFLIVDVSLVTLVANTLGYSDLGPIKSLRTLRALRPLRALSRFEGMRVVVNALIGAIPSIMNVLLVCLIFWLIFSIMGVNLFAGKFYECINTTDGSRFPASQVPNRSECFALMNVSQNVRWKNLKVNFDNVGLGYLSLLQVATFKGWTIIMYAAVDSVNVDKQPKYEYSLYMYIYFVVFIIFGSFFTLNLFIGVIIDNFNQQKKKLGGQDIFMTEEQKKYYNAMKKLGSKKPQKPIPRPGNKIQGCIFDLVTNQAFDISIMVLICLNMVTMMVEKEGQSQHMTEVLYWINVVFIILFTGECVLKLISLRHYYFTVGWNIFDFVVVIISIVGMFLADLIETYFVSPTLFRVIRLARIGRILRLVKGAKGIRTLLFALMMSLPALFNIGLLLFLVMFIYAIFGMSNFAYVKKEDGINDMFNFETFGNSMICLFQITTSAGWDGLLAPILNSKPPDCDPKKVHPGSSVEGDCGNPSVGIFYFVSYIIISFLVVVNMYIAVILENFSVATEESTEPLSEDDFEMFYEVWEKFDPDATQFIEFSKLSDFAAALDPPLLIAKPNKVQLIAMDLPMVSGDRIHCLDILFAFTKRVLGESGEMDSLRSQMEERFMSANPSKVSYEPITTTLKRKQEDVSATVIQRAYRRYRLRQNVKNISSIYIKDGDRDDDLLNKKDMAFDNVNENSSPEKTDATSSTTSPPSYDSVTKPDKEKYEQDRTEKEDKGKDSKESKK
hNav1.7, sequence (Q07699 19-218 partner): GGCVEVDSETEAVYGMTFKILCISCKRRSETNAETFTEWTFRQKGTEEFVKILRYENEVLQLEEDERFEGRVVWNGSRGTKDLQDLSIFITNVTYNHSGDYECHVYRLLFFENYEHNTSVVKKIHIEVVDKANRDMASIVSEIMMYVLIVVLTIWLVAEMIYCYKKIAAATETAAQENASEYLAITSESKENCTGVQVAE

Q: Which IC50 does the source give for `C[C@H]1CN(Cc2cc(F)c(C(=O)NS(C)(=O)=O)cc2C2CC2)CCN1[C@@H](C)c1cc(Cl)cc(Cl)c1` [Example 567, 5-cyclopropyl-4-(((S)-4-((S)-1-(3,5-dichlorophenyl)ethyl)-3-methylpiperazin-1-yl)methyl)-2-fluoro-N-(methylsulfonyl)benzamide] here?
A: Its IC50 is 15.2 nM.

Q: For `O=C(NS(=O)(=O)N1CCC1)c1cc(C2CC2)c(O[C@@H]2CCCN(CC3CCCCC3)C2)cc1F` [Example 11, (R)—N-(azetidin-1-ylsulfonyl)-4-((1-(cyclohexylmethyl)piperidin-3-yl)oxy)-5-cyclopropyl-2-fluorobenzamide], which IC50 is on record?
A: Its IC50 is 47.4 nM.

Q: With `O=C(NS(=O)(=O)N1CCC1)c1cc(C2CC2)c(O[C@@H]2CCCN(Cc3ccc(Cl)cc3Cl)C2)cc1F` [Example 30, (R)—N-(azetidin-1-ylsulfonyl)-5-cyclopropyl-4-((1-(2,4-dichlorobenzyl)piperidin-3-yl)oxy)-2-fluorobenzamide] as the molecule, how does the IC50 read?
A: The IC50 was 2.7 nM.

Same assay, conditions: read-out: Ligand Binding Assay; 100 pM [3H]compound, membranes with hNav1.7 and β1 subunit, 18 h, room temperature

Q: `C[C@@H](c1cc(Cl)cc(C(F)(F)F)c1)N1CCC(C)(COc2cc(F)c(C(=O)NS(C)(=O)=O)cc2C2CC2)CC1` (single isomer, unassigned) [Example 279] was tested. Which IC50 did it give?
A: Its IC50 is 4 nM.

Q: How did the IC50 turn out when `O=C(NS(=O)(=O)N1CCC1)c1cc(C2CC2)c(CN2CCO[C@H](Cc3ccc(Cl)c(Cl)c3)C2)cc1F` [Example 459, (R)—N-(azetidin-1-ylsulfonyl)-5-cyclopropyl-4-((2-(3,4-dichlorobenzyl)morpholino)methyl)-2-fluorobenzamide] was run?
A: The IC50 was 12.5 nM.

Q: Which IC50 does the source give for `O=C(NS(=O)(=O)C(F)F)c1cc(C2CC2)c(OCC2CN(C(c3ccccc3)c3ccccc3)C2)cc1F` [Example 62] here?
A: The IC50 was 47 nM.

Q: How did the IC50 turn out when `CS(=O)(=O)NC(=O)c1cc(C2CC2)c(OCC2CN([C@@H](c3ccccc3)c3ccncc3)C2)cc1F` [Example 152, (S)-5-Cyclopropyl-2-fluoro-N-(methylsulfonyl)-4-((1-(phenyl(pyridin-4-yl)methyl)azetidin-3-yl)methoxy)benzamide] was run?
A: The IC50 was 443 nM.

Q: Which IC50 does the source give for `CS(=O)(=O)NC(=O)c1cc(C2CC2)c(OCC2CCN(Cc3ccc(C4CC4)cc3Cl)CC2)cc1F` [Example 415, 4-((1-(2-chloro-4-cyclopropylbenzyl)piperidin-4-yl)methoxy)-5-cyclopropyl-2-fluoro-N-(methylsulfonyl)benzamide, trifluoroacetic acid salt] here?
A: The IC50 was 6.1 nM.

Q: How did the IC50 turn out when `CS(=O)(=O)NC(=O)c1cc(C2CC2)c(OC[C@H]2CCCN(Cc3ccc(F)cc3Cl)C2)cc1F` [Example 335, (S)-4-((1-(2-chloro-4-fluorobenzyl)piperidin-3-yl)methoxy)-5-cyclopropyl-2-fluoro-N-(methylsulfonyl)benzamide] was run?
A: Its IC50 is 14.3 nM.

Q: With `CS(=O)(=O)NC(=O)c1cc(C2CC2)c(O[C@@H]2CCCN(S(C)(=O)=O)C2)cc1F` [Example 314, (R)-5-cyclopropyl-2-fluoro-N-(methylsulfonyl)-4-((1-(methylsulfonyl)piperidin-3-yl)oxy)benzamide] as the molecule, how does the IC50 read?
A: Its IC50 is over 10000 nM.

Q: For `C[C@@H]1CC[C@@H](COc2cc(F)c(C(=O)NS(C)(=O)=O)cc2C2CC2)CN1Cc1cc(Cl)cc(Cl)c1` [Example 341, 5-cyclopropyl-4-(((3R,6R)-1-(3,5-dichlorobenzyl)-6-methylpiperidin-3-yl)methoxy)-2-fluoro-N-(methylsulfonyl)benzamide, trifluoroacetic acid salt], which IC50 is on record?
A: Its IC50 is 4.4 nM.

Q: With `COC[C@H](c1cc(Cl)cc(Cl)c1)N1CCC(C)(COc2cc(F)c(C(=O)NS(C)(=O)=O)cc2C2CC2)CC1` (single isomer, unassigned) [Example 173] as the molecule, how does the IC50 read?
A: The IC50 was 3.9 nM.

Q: How did the IC50 turn out when `C[C@H](c1cc(Cl)cc(Cl)c1)N1CCC(F)(COc2cc(F)c(C(=O)NS(C)(=O)=O)cc2C2CC2)CC1` [Example 351, (R)-5-cyclopropyl-4-((1-(1-(3,5-dichlorophenyl)ethyl)-4-fluoropiperidin-4-yl)methoxy)-2-fluoro-N-(methylsulfonyl)benzamide, trifluoroacetic acid] was run?
A: Its IC50 is 5.3 nM.

Q: `C[C@@H]1CC[C@@H](Oc2cc(F)c(C(=O)NS(=O)(=O)N3CCC3)cc2C2CC2)CN1Cc1ccc(F)cc1Cl` [Example 322, N-(azetidin-1-ylsulfonyl)-4-(((3R,6R)-1-(2-chloro-4-fluorobenzyl)-6-methylpiperidin-3-yl)oxy)-5-cyclopropyl-2-fluorobenzamide] was tested. Which IC50 did it give?
A: The IC50 was 1.9 nM.

Q: How did the IC50 turn out when `CCS(=O)(=O)NC(=O)c1cc(C2CC2)c(OCC2CCN([C@@H](C)c3ccc(F)cc3Cl)CC2)cc1F` (single isomer, unassigned) [Example 245] was run?
A: The IC50 was 7.9 nM.

Q: Which IC50 does the source give for `C[C@@H](c1ccc(F)cc1Cl)N1C[C@H]2C[C@@H]1[C@H](Oc1cc(F)c(C(=O)NS(C)(=O)=O)cc1C1CC1)C2` [Example 450, 4-(((1R,4S,6R)-2-((S)-1-(2-chloro-4-fluorophenyl)ethyl)-2-azabicyclo[2.2.1]heptan-6-yl)oxy)-5-cyclopropyl-2-fluoro-N-(methylsulfonyl)benzamide, trifluoroacetic acid salt] here?
A: The IC50 was 9.9 nM.

Q: For `CS(=O)(=O)NC(=O)c1cc(C2CC2)c(OCC2CCN(Cc3ccc(Cl)c(Cl)c3)CC2)cc1F` [Example 147, 5-Cyclopropyl-4-((1-(3,4-dichlorobenzyl)piperidin-4-yl)methoxy)-2-fluoro-N-(methylsulfonyl)benzamide], which IC50 is on record?
A: Its IC50 is 6.03 nM.

Q: How did the IC50 turn out when `C[C@H](c1cc(Cl)cc(Cl)c1)N1CCC(COc2cc(F)c(C(=O)NS(=O)(=O)C3CC3)cc2Cl)CC1` [Example 405, (R)-5-chloro-N-(cyclopropylsulfonyl)-4-((1-(1-(3,5-dichlorophenyl)ethyl)piperidin-4-yl)methoxy)-2-fluorobenzamide, trifluoroacetic acid salt] was run?
A: Its IC50 is 15 nM.

Q: For `C[C@H](c1ccc(Cl)cc1Cl)N1CCC(COc2cc(F)c(C(=O)NS(C)(=O)=O)cc2C2CC2)CC1` [Example 239, (R)-5-cyclopropyl-4-((1-(1-(2,4-dichlorophenyl)ethyl)piperidin-4-yl)methoxy)-2-fluoro-N-(methylsulfonyl)benzamide], which IC50 is on record?
A: Its IC50 is 3.4 nM.

Q: With `CS(=O)(=O)NC(=O)c1cc(C2CC2)c(OCC2CCN(C(c3ccccc3Cl)c3ccccc3Cl)CC2)cc1F` [Example 361, 4-((1-(bis(2-chlorophenyl)methyl)piperidin-4-yl)methoxy)-5-cyclopropyl-2-fluoro-N-(methylsulfonyl)benzamide, trifluoroacetic acid salt] as the molecule, how does the IC50 read?
A: The IC50 was 2 nM.

Q: Which IC50 does the source give for `C[C@@H](c1cc(Cl)cc(Cl)c1)N1CCC(F)(COc2cc(F)c(C(=O)NS(=O)(=O)C3CC3)cc2C2CC2)CC1` [Example 350] here?
A: Its IC50 is 4.5 nM.

Q: Which IC50 does the source give for `COC(C)(C)[C@@H](c1cc(Cl)cc(Cl)c1)N1CCC(COc2cc(F)c(C(=O)NS(C)(=O)=O)cc2C2CC2)CC1` (single isomer, unassigned) [Example 205] here?
A: The IC50 was 2.5 nM.

Q: With `C[C@H](c1ccc(Cl)cc1Cl)N1CCC(C)(COc2cc(F)c(C(=O)NS(C)(=O)=O)cc2C2CC2)CC1` [Example 281, (R)-5-cyclopropyl-4-((1-(1-(2,4-dichlorophenyl)ethyl)-4-methylpiperidin-4-yl)methoxy)-2-fluoro-N-(methylsulfonyl)benzamide] as the molecule, how does the IC50 read?
A: Its IC50 is 4.7 nM.

Q: With `Cc1cc(F)ccc1CN1CCC[C@@H](Oc2cc(F)c(C(=O)NS(C)(=O)=O)cc2C2CC2)C1` [Example 431, (R)-5-cyclopropyl-2-fluoro-4-((1-(4-fluoro-2-methylbenzyl)piperidin-3-yl)oxy)-N-(methylsulfonyl)benzamide, trifluoroacetic acid salt] as the molecule, how does the IC50 read?
A: The IC50 was 3.2 nM.

Q: With `COC[C@@](C)(c1cc(Cl)cc(Cl)c1)N1CCC(COc2cc(F)c(C(=O)NS(C)(=O)=O)cc2C2CC2)CC1` (single isomer, unassigned) [Example 201] as the molecule, how does the IC50 read?
A: The IC50 was 5 nM.
